In patent publication US20210007356A1, “IMIDE DERIVATIVE AND FUNGICIDE CONTAINING SAID DERIVATIVE AS ACTIVE INGREDIENT” (HOKKO CHEMICAL INDUSTRY CO., LTD., priority 2018, published 2021):
Read-outs that look alike come from different tables or passages of the source.

Assays:
[1] = tested on: rice blast fungus (Pyricularia grisea); type: in vivo; conditions: flowable 5,000 ppm, 50 mL irrigation of nursery box, paddy rice; inoculated after 3 weeks; 7 days after inoculation
[2] = tested on: rice sheath blight fungus (Thanatephorus cucumeris); assay: Test Example 8: control effect against rice sheath blight by box treatment (granule); conditions: 5 g of granule on nursery box, paddy rice; inoculated after 3 weeks; 7 days after inoculation
[3] = tested on: rice blast fungus (Pyricularia grisea); type: in vivo; conditions: 5 g of granule on nursery box, paddy rice; inoculated after 3 weeks; 7 days after inoculation
[4] = tested on: rice sheath blight fungus (Thanatephorus cucumeris); assay: Test Example 10: control effect against rice sheath blight by water surface application (flowable formulation); conditions: flowable 1,000 ppm, 1 mL dripped in paddy water, inoculated after 1 week, 7 days after inoculation
Experimental: Control value (%)=[1−(lesion height in sprayed plot/lesion height in unsprayed plot)]×100 (d)
By dripping treatment in paddy water, 1 mL of a diluted solution (1,000 ppm) of a flowable prepared according to Formulation Example-3 was applied to a 5-leaf-stage paddy rice (variety: Asahi) seedling (5 seedlings/stub, one stub/pot) grown in a pot ( 1/10000 are in size) filled with paddy soil (flooded) within a greenhouse. After growing for 1 week within a greenhouse, a culture of rice sheath blight fungus (Thanatephorus cucumeris) grown in advance on a rice straw medium was inoculated into the root of the formulation-treated paddy rice, and disease development was promoted in an artificial weather chamber at 26° C. (relative humidity=100%). Seven days after the inoculation, the rice sheath blight lesion height (height from the root) was examined, and the control value (%) was calculated according to formula (d). […] This test was performed with three replications, each consisting of one plot and one pot, per one formulation plot, and its average evaluation value of control effect was determined.

[5] = tested on: rice blast fungus (Pyricularia grisea); type: in vivo; conditions: flowable 1,000 ppm, 1 mL dripped in paddy water, inoculated after 1 week, 7 days after inoculation
[6] = tested on: barley powdery mildew fungus (Erysiphe graminis); assay: Test Example 2: control effect against barley powdery mildew by foliage application; type: in vivo; conditions: wettable powder diluted to 100 ppm, 10 mL per pot foliage spray on barley; inoculated day after; 7 days after inoculation
[7] = tested on: rice sheath blight fungus (Thanatephorus cucumeris); assay: Test Example 6: control effect against rice sheath blight by box treatment (flowable formulation); conditions: flowable 5,000 ppm, 50 mL irrigation of nursery box, paddy rice; inoculated after 3 weeks; 7 days after inoculation

Row | SMILES | evaluation value of control effect (from control value, number of lesions) [1] | evaluation value of control effect (from control value, lesion height) [2] | evaluation value of control effect (from control value, number of lesions) [3] | evaluation value of control effect (from control value, lesion height) [4] | evaluation value of control effect (from control value, number of lesions) [5] | evaluation value of control effect (from control value, lesion area percentage) [6] | evaluation value of control effect (from control value, lesion height) [7]
1 | CC(C)CCc1ccccc1N(C(=O)c1cn(C)nc1C(F)F)C(=O)c1snc(Cl)c1Cl [1-34] | 5 | 5 | 5 | 5 | 5 | 4 | 5
2 | Cc1cc(C(=O)N(C(=O)c2cn(C)nc2C(F)F)c2ccccc2C(C)CC(C)C)sn1 (stereo not shown) [1-136] | 5 | 5 | 5 | 5 | 5 | 4 | 5
3 | Cc1nnsc1C(=O)N(C(=O)c1c(C)nn(C)c1F)c1ccccc1C(C)CC(C)C (stereo not shown) [1-158] | 5 | – | 5 | – | 5 | 4 | –
4 | CC(C)CC(C)c1sccc1N(C(=O)c1cn(C)nc1C(F)(F)F)C(=O)c1snc(Cl)c1Cl (stereo not shown) [5-1, 3,4-Dichloro-N-{2-(1,3-dimethylbutyl)-3-thienyl}-N-{1-methyl-3-(trifluoromethyl)pyrazole-4-carbonyl}isothiazole-5-carboxamide] | 5 | – | 5 | – | 5 | 5 | –
5 | CCC(C)Oc1cccc(N(C(=O)c2sc(C)nc2C(F)F)C(=O)c2snc(Cl)c2Cl)c1C (stereo not shown) [7-125] | 5 | – | 5 | – | 5 | 4 | –
6 | CCc1nc(C(F)F)c(C(=O)N(C(=O)c2snc(Cl)c2Cl)c2ccccc2C(C)CC(C)C)s1 (stereo not shown) [7-132] | 5 | – | 5 | – | 5 | 4 | –
7 | Cc1nc(C(F)F)c(C(=O)N(C(=O)c2cccc3nnsc23)c2ccccc2C(C)CC(C)C)s1 (stereo not shown) [7-200] | 5 | – | 5 | – | 5 | 4 | –
8 | Cc1nc(C(F)F)c(C(=O)N(C(=O)c2snc(Cl)c2Cl)c2ccsc2C(C)CC(C)C)s1 (stereo not shown) [11-8] | 5 | – | 5 | – | 5 | 5 | –
9 | CC(C)CC(C)c1ccccc1N(C(=O)c1cccnc1C(F)(F)F)C(=O)c1snc(Cl)c1Cl (stereo not shown) [13-1] | 5 | – | 5 | – | 5 | 5 | –
10 | CC(C)CC(C)c1ccccc1N(C(=O)c1cccnc1F)C(=O)c1snc(Cl)c1Cl (stereo not shown) [13-51] | 5 | – | 5 | – | 5 | 4 | –
11 | Cc1ncccc1C(=O)N(C(=O)c1snc(Cl)c1Cl)c1ccccc1C(C)CC(C)C (stereo not shown) [13-52] | 5 | – | 5 | – | 5 | 4 | –
12 | CC1CC(C)(C)c2cccc(N(C(=O)c3cn(C)nc3C(F)F)C(=O)c3cccc4nnsc34)c21 (stereo not shown) [25-73] | 5 | – | 5 | – | 5 | 5 | –
13 | CC1CC(C)(C)c2cccc(N(C(=O)c3cn(C)nc3C(F)F)C(=O)c3scnc3C(F)F)c21 (stereo not shown) [25-109] | 5 | – | 5 | – | 5 | 4 | –
14 | Cc1nn(C)c(Cl)c1C(=O)N(C(=O)c1snnc1C(F)F)c1cccc2c1C(C)OC2(C)C (stereo not shown) [25-117] | 5 | 5 | 5 | 5 | 5 | – | 5
15 | Cc1nn(C)c(Cl)c1C(=O)N(C(=O)c1cccc2nnsc12)c1cccc2c1C(C)OC2(C)C (stereo not shown) [25-118] | 5 | – | 5 | – | 5 | – | –
16 | CCc1nc(C(F)F)c(C(=O)N(C(=O)c2sc(C)nc2C(F)F)c2cccc3c2C(C)OC3(C)C)s1 (stereo not shown) [26-70] | 5 | 5 | 5 | 5 | 5 | – | 5
17 | Cc1nc(C(F)F)c(C(=O)N(C(=O)c2cc(Cl)c(Cl)s2)c2cccc3c2C(C)CC3(C)C)s1 (stereo not shown) [26-87] | 5 | – | 5 | – | 5 | – | –
18 | Cc1nc(C(F)F)c(C(=O)N(C(=O)c2cc(Cl)c(Cl)s2)c2cccc3c2C(C)OC3(C)C)s1 (stereo not shown) [26-90] | 5 | 5 | 5 | 5 | 5 | – | 5
19 | Cc1nc(C(F)F)c(C(=O)N(C(=O)c2onc(Cl)c2Cl)c2cccc3c2C(C)OC3(C)C)s1 (stereo not shown) [26-92] | 5 | 5 | 5 | 5 | 5 | – | 5
20 | CC1OC(C)(C)c2cccc(N(C(=O)c3cccnc3C(F)F)C(=O)c3cccc4nnsc34)c21 (stereo not shown) [27-28] | 5 | 5 | 5 | 5 | 5 | – | 5
21 | Cc1nc(C(F)F)c(C(=O)N(C(=O)c2cccnc2C(F)F)c2cccc3c2C(C)OC3(C)C)s1 (stereo not shown) [27-36] | 5 | 5 | 5 | 5 | 5 | – | 5
